Laboratory results: ChEMBL document CHEMBL1201862, “PubChem BioAssay data set” (2004)
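Following 48 hours of exposure in 96-well plates, responses at five concentrations were used to interpolate endpoints linearly. GI50: concentration for 50% inhibition of growth.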 The source made the active and inactive calls. No stated cut-off is given here; in the data, active = GI50 up to about 1.1 µM and inactive = higher.

Key:
Experiment in all cases: NCI tumour cell line growth inhibition, 48 h
DMS-114 = test system: DMS-114
HOP-92 = test system: HOP-92
CCRF-CEM = test system: CCRF-CEM
EKVX = test system: EKVX
CAKI-1 = test system: CAKI-1
NCI-H522 = test system: NCI-H522
XF498 = test system: XF498
RXF 631 = test system: RXF 631
SN12C = test system: SN12C
SK-MEL-5 = test system: SK-MEL-5
MOLT-4 = test system: MOLT-4
HOP-18 = test system: HOP-18
A498 = test system: A498
SNB-19 = test system: SNB-19
Malme-3M = test system: Malme-3M
SK-MEL-2 = test system: SK-MEL-2
SK-OV-3 = test system: SK-OV-3
K562 = test system: K562
HT-29 = test system: HT-29
UO-31 = test system: UO-31
M14 = test system: M14
NCI-H23 = test system: NCI-H23
SF-268 = test system: SF-268
COLO 205 = test system: COLO 205
SK-MEL-28 = test system: SK-MEL-28
RPMI-8226 = test system: RPMI-8226
NCI-H226 = test system: NCI-H226
SNB-75 = test system: SNB-75
LXFL 529 = test system: LXFL 529
ACHN = test system: ACHN
M19-MEL = test system: M19-MEL
SW-620 = test system: SW-620
KM-20L2 = test system: KM-20L2
SF-295 = test system: SF-295
OVCAR-8 = test system: OVCAR-8
HCT-15 = test system: HCT-15
IGROV-1 = test system: IGROV-1
DLD-1 = test system: DLD-1
SNB-78 = test system: SNB-78
NCI-H460 = test system: NCI-H460
SF-539 = test system: SF-539
TK-10 = test system: TK-10
U-251 = test system: U-251
OVCAR-3 = test system: OVCAR-3
UACC-62 = test system: UACC-62
LOX IMVI = test system: LOX IMVI
HL-60 = test system: HL-60
KM12 = test system: KM12
NCI/ADR-RES = test system: NCI/ADR-RES
HOP-62 = test system: HOP-62
786-0 = test system: 786-0
MDA-N = test system: MDA-N
OVCAR-5 = test system: OVCAR-5
T47D = test system: T47D
MDA-MB-231 = test system: MDA-MB-231
HCC 2998 = test system: HCC 2998
Hs-578T = test system: Hs-578T
HCT-116 = test system: HCT-116
DMS-273 = test system: DMS-273
DU-145 = test system: DU-145
PC-3 = test system: PC-3
A549 = test system: A549
SR = test system: SR
UACC-257 = test system: UACC-257
MCF7 = test system: MCF7
MDA-MB-435 = test system: MDA-MB-435
RXF 393 = test system: RXF 393
BT-549 = test system: BT-549
OVCAR-4 = test system: OVCAR-4

Question: For `O=c1ccc2cc3ccc4cccc5ccc(c2o1)c3c45`, which GI50 (DMS-114) is on record?
Answer: 33 µM (inactive)

Question: And the GI50 (HOP-92)?
Answer: 5.24 µM (inactive)

Question: What about the GI50 (CCRF-CEM) of the same compound?
Answer: > 100 µM (inactive)

Question: What about the GI50 (EKVX) of the same compound?
Answer: > 100 µM (inactive)

Question: What about the GI50 (CAKI-1) of the same compound?
Answer: > 100 µM (inactive)

Question: And the GI50 (NCI-H522)?
Answer: 25.9 µM (inactive)

Question: What about the GI50 (XF498) of the same compound?
Answer: 12 µM (inactive)

Question: And the GI50 (RXF 631)?
Answer: 80 µM (inactive)

Question: What about the GI50 (SN12C) of the same compound?
Answer: 25 µM (inactive)

Question: And the GI50 (SK-MEL-5)?
Answer: 40.4 µM (inactive)

Question: What about the GI50 (MOLT-4) of the same compound?
Answer: > 100 µM (inactive)

Question: What about the GI50 (HOP-18) of the same compound?
Answer: 5.7 µM (inactive)

Question: And the GI50 (A498)?
Answer: 16 µM (inactive)

Question: And the GI50 (SNB-19)?
Answer: 37.3 µM (inactive)

Question: And the GI50 (Malme-3M)?
Answer: > 100 µM (inactive)

Question: What about the GI50 (SK-MEL-2) of the same compound?
Answer: > 100 µM (inactive)

Question: And the GI50 (SK-OV-3)?
Answer: 13.6 µM (inactive)

Question: What about the GI50 (K562) of the same compound?
Answer: > 100 µM (inactive)

Question: And the GI50 (HT-29)?
Answer: 22.2 µM (inactive)

Question: What about the GI50 (UO-31) of the same compound?
Answer: 14.3 µM (inactive)

Question: What about the GI50 (M14) of the same compound?
Answer: > 100 µM (inactive)

Question: And the GI50 (NCI-H23)?
Answer: 67.8 µM (inactive)

Question: What about the GI50 (SF-268) of the same compound?
Answer: 28.8 µM (inactive)

Question: What about the GI50 (COLO 205) of the same compound?
Answer: > 100 µM (inactive)

Question: And the GI50 (SK-MEL-28)?
Answer: > 100 µM (inactive)

Question: What about the GI50 (RPMI-8226) of the same compound?
Answer: > 100 µM (inactive)

Question: What about the GI50 (NCI-H226) of the same compound?
Answer: 19.7 µM (inactive)

Question: And the GI50 (SNB-75)?
Answer: 24.7 µM (inactive)

Question: What about the GI50 (LXFL 529) of the same compound?
Answer: 45 µM (inactive)

Question: What about the GI50 (ACHN) of the same compound?
Answer: 12.5 µM (inactive)

Question: What about the GI50 (M19-MEL) of the same compound?
Answer: > 100 µM (inactive)

Question: What about the GI50 (SW-620) of the same compound?
Answer: 31.8 µM (inactive)

Question: What about the GI50 (KM-20L2) of the same compound?
Answer: > 100 µM (inactive)

Question: And the GI50 (SF-295)?
Answer: 33 µM (inactive)

Question: What about the GI50 (OVCAR-8) of the same compound?
Answer: 23.2 µM (inactive)

Question: What about the GI50 (HCT-15) of the same compound?
Answer: > 100 µM

Question: And the GI50 (IGROV-1)?
Answer: > 100 µM (inactive)

Question: What about the GI50 (DLD-1) of the same compound?
Answer: > 100 µM (inactive)

Question: What about the GI50 (SNB-78) of the same compound?
Answer: > 100 µM (inactive)

Question: And the GI50 (NCI-H460)?
Answer: 13.1 µM (inactive)

Question: And the GI50 (SF-539)?
Answer: 9.64 µM (inactive)

Question: And the GI50 (TK-10)?
Answer: > 100 µM (inactive)

Question: What about the GI50 (U-251) of the same compound?
Answer: 13.1 µM (inactive)

Question: And the GI50 (OVCAR-3)?
Answer: > 10 µM (inactive)

Question: And the GI50 (UACC-62)?
Answer: 47 µM (inactive)

Question: And the GI50 (LOX IMVI)?
Answer: 12.1 µM (inactive)

Question: What about the GI50 (HL-60) of the same compound?
Answer: > 100 µM (inactive)

Question: Which GI50 (DMS-114) does the source give for `COc1cc2c[n+](C)c3c4ccccc4ccc3c2cc1OC.COc1cc2cnc3c4ccccc4ccc3c2cc1OC` here?
Answer: 2.31 µM (inactive)

Question: And the GI50 (HOP-92)?
Answer: 10.6 µM (inactive)

Question: And the GI50 (CCRF-CEM)?
Answer: 6.47 µM (inactive)

Question: What about the GI50 (EKVX) of the same compound?
Answer: 2.2 µM (inactive)

Question: What about the GI50 (KM12) of the same compound?
Answer: 0.859 µM (active)

Question: And the GI50 (CAKI-1)?
Answer: 58.6 µM (inactive)

Question: And the GI50 (NCI-H522)?
Answer: 1.22 µM (inactive)

Question: What about the GI50 (XF498) of the same compound?
Answer: 5.69 µM (inactive)

Question: What about the GI50 (NCI/ADR-RES) of the same compound?
Answer: 10 µM (inactive)

Question: What about the GI50 (HOP-62) of the same compound?
Answer: 19.1 µM (inactive)

Question: What about the GI50 (RXF 631) of the same compound?
Answer: 23 µM (inactive)

Question: And the GI50 (SN12C)?
Answer: 2.84 µM (inactive)

Question: What about the GI50 (SK-MEL-5) of the same compound?
Answer: 14.9 µM (inactive)

Question: What about the GI50 (MOLT-4) of the same compound?
Answer: 1.46 µM (inactive)

Question: And the GI50 (HOP-18)?
Answer: 23.3 µM (inactive)

Question: What about the GI50 (SNB-19) of the same compound?
Answer: 3.94 µM (inactive)

Question: What about the GI50 (Malme-3M) of the same compound?
Answer: 3.21 µM (inactive)

Question: What about the GI50 (786-0) of the same compound?
Answer: 12.3 µM (inactive)

Question: And the GI50 (SK-MEL-2)?
Answer: 9.82 µM (inactive)

Question: What about the GI50 (SK-OV-3) of the same compound?
Answer: 9.29 µM (inactive)

Question: What about the GI50 (MDA-N) of the same compound?
Answer: 7.05 µM (inactive)

Question: And the GI50 (OVCAR-5)?
Answer: 17.3 µM (inactive)

Question: What about the GI50 (K562) of the same compound?
Answer: 9.55 µM (inactive)

Question: What about the GI50 (T47D) of the same compound?
Answer: 3.14 µM (inactive)

Question: What about the GI50 (HT-29) of the same compound?
Answer: 7.59 µM (inactive)

Question: And the GI50 (UO-31)?
Answer: 66.1 µM (inactive)

Question: And the GI50 (M14)?
Answer: 20.2 µM (inactive)

Question: And the GI50 (NCI-H23)?
Answer: 12.2 µM (inactive)

Question: What about the GI50 (MDA-MB-231) of the same compound?
Answer: 2.79 µM (inactive)

Question: And the GI50 (SF-268)?
Answer: 0.592 µM (active)

Question: What about the GI50 (COLO 205) of the same compound?
Answer: 2.86 µM (inactive)

Question: And the GI50 (SK-MEL-28)?
Answer: 5.5 µM (inactive)

Question: What about the GI50 (RPMI-8226) of the same compound?
Answer: 8.11 µM (inactive)

Question: And the GI50 (NCI-H226)?
Answer: 13.1 µM (inactive)

Question: And the GI50 (SNB-75)?
Answer: 3.54 µM (inactive)

Question: And the GI50 (LXFL 529)?
Answer: 2.21 µM (inactive)

Question: What about the GI50 (ACHN) of the same compound?
Answer: 73.1 µM (inactive)

Question: And the GI50 (HCC 2998)?
Answer: 8.47 µM (inactive)

Question: What about the GI50 (Hs-578T) of the same compound?
Answer: 2.31 µM (inactive)

Question: What about the GI50 (M19-MEL) of the same compound?
Answer: 3.85 µM (inactive)

Question: What about the GI50 (HCT-116) of the same compound?
Answer: 7.83 µM (inactive)

Question: And the GI50 (DMS-273)?
Answer: 2.88 µM (inactive)

Question: What about the GI50 (DU-145) of the same compound?
Answer: 5.68 µM (inactive)

Question: And the GI50 (PC-3)?
Answer: 2.84 µM (inactive)

Question: What about the GI50 (SW-620) of the same compound?
Answer: 4.34 µM (inactive)

Question: What about the GI50 (KM-20L2) of the same compound?
Answer: 8.81 µM (inactive)

Question: And the GI50 (A549)?
Answer: 2.54 µM (inactive)

Question: What about the GI50 (SR) of the same compound?
Answer: 4.42 µM (inactive)

Question: And the GI50 (SF-295)?
Answer: 19.6 µM (inactive)

Question: What about the GI50 (OVCAR-8) of the same compound?
Answer: 12.1 µM (inactive)

Question: And the GI50 (UACC-257)?
Answer: 20 µM (inactive)

Question: What about the GI50 (HCT-15) of the same compound?
Answer: > 100 µM

Question: And the GI50 (IGROV-1)?
Answer: 11.8 µM (inactive)

Question: What about the GI50 (DLD-1) of the same compound?
Answer: 31.3 µM (inactive)

Question: What about the GI50 (NCI-H460) of the same compound?
Answer: 11.6 µM (inactive)

Question: And the GI50 (MCF7)?
Answer: 1.79 µM (inactive)

Question: What about the GI50 (SF-539) of the same compound?
Answer: 10 µM (inactive)

Question: And the GI50 (MDA-MB-435)?
Answer: 2.87 µM (inactive)

Question: What about the GI50 (TK-10) of the same compound?
Answer: 26.6 µM (inactive)

Question: What about the GI50 (RXF 393) of the same compound?
Answer: 21.2 µM (inactive)

Question: And the GI50 (U-251)?
Answer: 3.05 µM (inactive)

Question: What about the GI50 (OVCAR-3) of the same compound?
Answer: 4.13 µM (inactive)

Question: And the GI50 (UACC-62)?
Answer: 6.68 µM (inactive)

Question: And the GI50 (LOX IMVI)?
Answer: 11.5 µM (inactive)

Question: What about the GI50 (HL-60) of the same compound?
Answer: 42.7 µM (inactive)

Question: And the GI50 (BT-549)?
Answer: 6.85 µM (inactive)

Question: And the GI50 (OVCAR-4)?
Answer: 21.7 µM (inactive)
